Assay results taken from patent publication US4450269A, “Mono-5-substituted-3-chloro-4H-1,2,6-thiadiazin-4-one antifungal agents” (FMC Corporation, priority 1980, dated 1984).

What was measured:
[1] = test system: Venturia inaequalis; test: Spore germination test; assay type: cell-based; conditions: VI, 48 hours
Experimental: VI = Venturia inaequalis
The test chemical was dissolved or suspended in acetone in an amount such that 0.8 ml of the resulting suspension or solution, mixed with 40 ml water agar produced a water agar solution containing 40, 10, 2.5 and 1 ppm of test chemical. The resulting agar solution, at 50° C., was then divided equally between two sterile petri dishes, each having four separated quadrants, and allowed to solidify. […] quadrants of each dish were flooded with 0.1 ml of a spore suspension in sterile water. Spores of two pathogens, Erysiphe polygoni and Uromyes phaseoli, from infected plant leaves, were brushed on the remaining two quadrants. The tests were then incubated 48 hours, at 24° C.
Readings were then taken and the percentage of germinated spores calculated. From this percentage, a spore germination rating was assigned as follows: […]

[2] = test system: Pyricularia oryzae; test: microbe, parasite or virus in culture; assay type: cell-based; conditions: Pyricularia oryzae, 72 h; for inhibition at 5 ppm: read-out: Percent Fungus Growth Inhibition, PO, 5 ppm, 72 hours; for inhibition at 10 ppm: read-out: Percent Fungus Growth Inhibition, PO, 10 ppm, 72 hours; for inhibition at 20 ppm: read-out: Percent Fungus Growth Inhibition, PO, 20 ppm, 72 hours; for inhibition at 40 ppm: read-out: Percent Fungus Growth Inhibition, PO, 40 ppm, 72 hours

Structure (SMILES)	Spore Germination Rating ([1]; 1.0 ppm)	Spore Germination Rating ([1]; 2.5 ppm)	Spore Germination Rating ([1]; 10 ppm)	Spore Germination Rating ([1]; 40 ppm)	inhibition at 5 ppm [2]	inhibition at 10 ppm [2]	inhibition at 20 ppm [2]	inhibition at 40 ppm [2]
Cc1ccc(Oc2nsnc(Cl)c2=O)cc1 [Compound 3, 3-chloro-5-(4-methylphenoxy)-4H--1,2,6-thiadiazin-4-one]	4 (80-100)	4 (80-100)	0 (0-10)	0 (0-10)	19%	41%	41%	93%
O=c1c(Cl)nsnc1Oc1cccc(C(F)(F)F)c1 [Compound 44, 3-chloro-5-[(3-trifluoromethyl)phenoxy]-4H--1,2,6-thiadiazin-4-one]	1 (10-40)	1 (10-40)	0 (0-10)	0 (0-10)	54%	71%	93%	100%
CC(=O)c1ccc(Oc2nsnc(Cl)c2=O)cc1 [Compound 47, 3-(4-acetylphenoxy)-5-chloro-4H--1,2,6-thiadiazin-4-one]	1 (10-40)	0 (0-10)	0 (0-10)	0 (0-10)	78%	78%	100%	89%
CCOC(=O)c1ccc(Oc2nsnc(Cl)c2=O)cc1 [Compound 7, 3-chloro-5-(4-ethoxycarbonylphenoxy)-4H--1,2,6-thiadiazin-4-one]	0 (0-10)	0 (0-10)	0 (0-10)	0 (0-10)	19%	65%	77%	81%
CC(=O)Nc1ccccc1Oc1nsnc(Cl)c1=O [Compound 43, 3-[(2-acetylamino)-phenoxy]-5-chloro-4H--1,2,6-thiadiazin-4-one]	4 (80-100)	4 (80-100)	4 (80-100)	2 (40-60)	13%	18%	24%	24%
O=c1c(Cl)nsnc1Oc1c(Cl)cccc1Cl [Compound 18, 3-chloro-5-(2,6-dichlorophenoxy)-4H--1,2,6-thiadiazin-4-one]	1 (10-40)	0 (0-10)	0 (0-10)	0 (0-10)	26%	32%	48%	48%
Cc1ccc(Oc2nsnc(Cl)c2=O)c(C)c1 [Compound 23, 3-chloro-5-(2,4-dimethylphenoxy)-4H--1,2,6-thiadiazin-4-one]	4 (80-100)	3 (60-80)	1 (10-40)	0 (0-10)	21%	42%	46%	58%
CC(C)(C)c1ccc(Oc2nsnc(Cl)c2=O)cc1 [Compound 4, 3-chloro-5-(4-tert-butylphnoxy)-4H--1,2,6-thiadiazin-4-one]	4 (80-100)	4 (80-100)	0 (0-10)	0 (0-10)	0%	0%	0%	19%
N#Cc1ccc(Oc2nsnc(Cl)c2=O)cc1 [Compound 10, 3-chloro-5-(4-cyanophenoxy)-4H--1,2,6-thiadiazin-4-one]	0 (0-10)	0 (0-10)	0 (0-10)	0 (0-10)	19%	19%	58%	77%
O=c1c(Cl)nsnc1Oc1ccc(Cl)c(Cl)c1 [Compound 16, 3-chloro-5-(3,4-dichlorophenoxy)-4H--1,2,6-thiadiazin-4-one]	0 (0-10)	0 (0-10)	0 (0-10)	0 (0-10)	41%	48%	48%	41%
Cc1cc(Oc2nsnc(Cl)c2=O)cc(C)c1Cl [Compound 59, 3-chloro-5-[(4-chloro-3,5-dimethyl)phenoxy]-4H--1,2,6-thiadiazin-4-one]	1 (10-40)	1 (10-40)	0 (0-10)	1 (10-40)	50%	61%	50%	50%
CC(=O)Nc1ccc(Oc2nsnc(Cl)c2=O)cc1 [Compound 8, 5-(4-acetylaminophenoxy)-3-chloro-4H--1,2,6-thiadiazin-4-one]	4 (80-100)	3 (60-80)	2 (40-60)	0 (0-10)	23%	0%	48%	74%
CCCCOc1ccc(Oc2nsnc(Cl)c2=O)cc1 [Compound 6, 3-chloro-5-(4-n-butoxyphenoxy)-4H--1,2,6-thiadiazin-4-one]	1 (10-40)	0 (0-10)	0 (0-10)	0 (0-10)	15%	0%	19%	19%
CNC(=O)Nc1ccc(Oc2nsnc(Cl)c2=O)cc1 [Compound 28, 3-chloro-5-[4-(3-methylureido)-phenoxy]-4H--1,2,6-thiadiazin-4-one]	4 (80-100)	4 (80-100)	2 (40-60)	3 (60-80)	24%	24%	52%	90%
O=c1c(Cl)nsnc1Oc1ccc(Cl)cc1Cl [Compound 17, 3-chloro-5-(2,4-dichlorophenoxy)-4H--1,2,6-thiadiazin-4-one]	0 (0-10)	0 (0-10)	0 (0-10)	0 (0-10)	29%	48%	29%	71%
O=c1c(Cl)nsnc1Oc1c(Cl)cc(Cl)cc1Cl [Compound 30, 3-chloro-5-(2,4,6-trichlorophenoxy)-4H--1,2,6-thiadiazin-4-one]	1 (10-40)	0 (0-10)	0 (0-10)	0 (0-10)	10%	71%	84%	90%
COc1ccc(Oc2nsnc(Cl)c2=O)cc1 [Compound 5, 3-chloro-5-(4-methoxyphenoxy)4H--1,2,6-thiadiazin-4-one]	3 (60-80)	0 (0-10)	0 (0-10)	0 (0-10)	4%	22%	48%	63%
O=C(Nc1ccccc1)Nc1ccc(Oc2nsnc(Cl)c2=O)cc1 [Compound 29, 3-chloro-5-[4-(3-phenylureido)-phenoxy]-4H--1,2,6-thiadiazin-4-one]	4 (80-100)	4 (80-100)	4 (80-100)	0 (0-10)	19%	14%	0%	0%
Cc1cccc(C)c1Oc1nsnc(Cl)c1=O [Compound 24, 3-chloro-5-(2,6-dimethylphenoxy)-4H--1,2,6-thiadiazin-4-one]	2 (40-60)	0 (0-10)	0 (0-10)	0 (0-10)	21%	42%	63%	100%
O=C(O)c1ccc(Oc2nsnc(Cl)c2=O)cc1 [Compound 50, 3-(4-carboxyphenoxy)-5-chloro-4H--1,2,6-thiadiazin-4-one]	4 (80-100)	4 (80-100)	4 (80-100)	0 (0-10)	11%	0%	11%	100%
Cc1cccc(Oc2nsnc(Cl)c2=O)c1 [Compound 21, 3-chloro-5-(3-methylphenoxy)-4H--1,2,6-thiadiazin-4-one]	4 (80-100)	3 (60-80)	0 (0-10)	0 (0-10)	33%	33%	50%	58%
O=c1c(Cl)nsnc1Oc1ccc(Cl)cc1 [Compound 12, 3-chloro-5-(4-chlorophenoxy)-4H--1,2,6-thiadiazin-4-one]	1 (10-40)	0 (0-10)	0 (0-10)	0 (0-10)	19%	30%	59%	85%
CC(=O)c1cccc(Oc2nsnc(Cl)c2=O)c1 [Compound 48, 3-(3-acetylphenoxy)-5-chloro-4H--1,2,6-thiadiazin-4-one]	3 (60-80)	1 (10-40)	0 (0-10)	0 (0-10)	56%	67%	100%	100%
CC(=O)c1ccccc1Oc1nsnc(Cl)c1=O [Compound 49, 3-(2-acetylphenoxy)-5-chloro-4H--1,2,6-thiadiazin-4-one]	4 (80-100)	4 (80-100)	1 (10-40)	0 (0-10)	29%	38%	53%	74%
